In US11584714B2 (priority 2018, dated 2023):
Counter-ions that a name gives are not always drawn. Like-named read-outs stand apart in the source and are kept apart here.

Experiments:
Format in all cases: biochemical
Thrombin = Thrombin (Homo sapiens (Human), UniProt P00734); assay: Thrombin inhibition (Ki)
MASP-2 = MASP-2 (Homo sapiens (Human), UniProt O00187); assay: MASP-2 inhibition (Ki)
mMASP-2 = mMASP-2 (Mus musculus (Mouse), UniProt Q91WP0); assay: Enzymatic inhibition of mMASP-2
human α-thrombin = human α-thrombin (Homo sapiens (Human), UniProt P00734); assay: Enzymatic assay for thrombin (Boc-VPR-AMC substrate)
MASP-2 (CCP1-CCP2-SP) = MASP-2 (CCP1-CCP2-SP) (Homo sapiens (Human), UniProt O00187); assay: biochemical; conditions: for MASP-2 vs. thrombin selectivity: selectivity for MASP-2 inhibition versus thrombin
Lectin Pathway = assay: Lectin pathway activation assay in human serum (mannan-coated ELISA, C3c detection); conditions: 1% human serum

Sequence of MASP-2 (O00187 16-686): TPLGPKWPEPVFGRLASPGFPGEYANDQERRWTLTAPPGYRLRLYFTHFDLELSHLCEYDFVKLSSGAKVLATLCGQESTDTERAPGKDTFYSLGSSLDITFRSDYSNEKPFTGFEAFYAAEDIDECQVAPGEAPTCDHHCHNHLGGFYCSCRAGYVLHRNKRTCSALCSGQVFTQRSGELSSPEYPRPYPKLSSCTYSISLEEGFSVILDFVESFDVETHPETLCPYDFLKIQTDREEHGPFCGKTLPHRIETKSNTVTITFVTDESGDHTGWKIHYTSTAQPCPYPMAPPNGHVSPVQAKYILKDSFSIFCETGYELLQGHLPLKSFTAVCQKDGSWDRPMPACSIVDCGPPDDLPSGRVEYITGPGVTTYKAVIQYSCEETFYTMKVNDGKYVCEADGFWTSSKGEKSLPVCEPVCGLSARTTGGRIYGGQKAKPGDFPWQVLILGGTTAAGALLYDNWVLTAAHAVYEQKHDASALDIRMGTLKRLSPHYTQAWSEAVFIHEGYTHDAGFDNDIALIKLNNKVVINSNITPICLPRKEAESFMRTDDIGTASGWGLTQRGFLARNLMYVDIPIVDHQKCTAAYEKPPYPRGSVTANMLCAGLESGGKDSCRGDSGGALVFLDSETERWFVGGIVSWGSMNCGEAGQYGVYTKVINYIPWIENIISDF
Sequence of MASP-2 (CCP1-CCP2-SP) (O00187 445-686): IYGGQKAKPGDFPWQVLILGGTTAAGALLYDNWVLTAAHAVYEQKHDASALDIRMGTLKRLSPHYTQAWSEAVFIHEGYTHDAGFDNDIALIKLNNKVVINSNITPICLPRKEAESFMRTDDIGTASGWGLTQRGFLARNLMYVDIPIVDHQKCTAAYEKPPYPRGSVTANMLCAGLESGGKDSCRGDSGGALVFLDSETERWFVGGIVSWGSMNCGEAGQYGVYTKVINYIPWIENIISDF
Sequence of mMASP-2 (Q91WP0 20-685): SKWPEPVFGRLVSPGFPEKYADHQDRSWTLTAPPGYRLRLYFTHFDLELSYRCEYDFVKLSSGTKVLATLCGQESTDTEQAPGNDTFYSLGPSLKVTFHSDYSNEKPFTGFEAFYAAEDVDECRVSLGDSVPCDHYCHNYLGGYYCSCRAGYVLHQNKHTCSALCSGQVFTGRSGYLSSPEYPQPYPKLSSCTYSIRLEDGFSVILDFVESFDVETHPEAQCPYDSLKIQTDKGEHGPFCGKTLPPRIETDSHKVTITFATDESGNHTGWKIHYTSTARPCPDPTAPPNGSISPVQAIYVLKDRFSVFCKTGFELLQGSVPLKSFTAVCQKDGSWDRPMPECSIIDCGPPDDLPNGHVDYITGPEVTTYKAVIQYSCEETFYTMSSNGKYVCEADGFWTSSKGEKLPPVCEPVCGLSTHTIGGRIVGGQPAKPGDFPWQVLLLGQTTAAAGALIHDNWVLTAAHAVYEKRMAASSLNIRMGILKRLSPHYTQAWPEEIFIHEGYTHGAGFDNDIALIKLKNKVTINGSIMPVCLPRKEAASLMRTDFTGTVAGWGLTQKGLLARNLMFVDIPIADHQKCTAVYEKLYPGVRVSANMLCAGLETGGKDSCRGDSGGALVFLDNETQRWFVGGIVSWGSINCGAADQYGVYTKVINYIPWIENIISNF

SMILES: CN(C)C(=S)Nc1ccccc1C(=O)O [compound 25]
- Thrombin Ki (μM) (Thrombin): No activity
- Ki (MASP-2): 25 to 100 µM

SMILES: O=c1[nH]c2ccccc2c(=O)o1 [compound 26]
- Ki (Thrombin): 25 to 100 µM
- Ki (MASP-2): < 10 µM

SMILES: O=C(Oc1cccc([N+](=O)[O-])c1)c1ccco1 [compound 27]
- Ki (Thrombin; read-out: Thrombin Ki): 25 to 100 µM
- Ki (MASP-2): < 10 µM

SMILES: O=C(O)c1ccc2c(c1)C1C=CCC1C(C(=O)O)N2 (stereo not drawn) [compound 28]
- Thrombin Ki (μM) (Thrombin): No activity
- Ki (MASP-2): 25 to 100 µM

SMILES: O=C1NC(=S)NC(=O)C1=C/C=C/c1ccco1 [compound 29]
- Ki (Thrombin; read-out: Thrombin Ki): 25 to 100 µM
- Ki (MASP-2): < 10 µM

SMILES: CC(=O)c1ccc2c(c1)C1C=CCC1C(C(=O)O)N2 (stereo not drawn) [compound 30]
- Thrombin Ki (μM) (Thrombin): No activity
- Ki (MASP-2): 25 to 100 µM

SMILES: COc1cc(/C=N/NC(=O)Cc2nnc(N)s2)ccc1OC(=O)c1ccco1 [compound 31]
- Thrombin Ki (μM) (Thrombin): No activity
- Ki (MASP-2): < 10 µM

SMILES: O=C(c1cccc2ccccc12)n1cccn1 [compound 32]
- Thrombin Ki (μM) (Thrombin): No activity
- Ki (MASP-2): < 10 µM

SMILES: CC(=O)Nc1ccc(OC(=O)c2ccccc2NC(=O)c2ccccc2Br)cc1 [compound 33]
- Ki (Thrombin; read-out: Thrombin Ki): < 10 µM
- Ki (MASP-2): < 10 µM

SMILES: Cc1c(/N=C/c2ccc(OC(=O)c3ccco3)cc2)c(=O)n(-c2ccccc2)n1C [compound 34]
- Ki (Thrombin; read-out: Thrombin Ki): 25 to 100 µM
- Ki (MASP-2): < 10 µM

SMILES: O=C1c2ccccc2C(=O)N1Oc1ccc(C(F)(F)F)cc1[N+](=O)[O-] [compound 35]
- Ki (MASP-2): 25 to 100 µM

SMILES: O=C(Nc1nc[nH]n1)c1cccc(I)c1 [compound 36]
- Ki (Thrombin; read-out: Thrombin Ki): 25 to 100 µM
- Ki (MASP-2): < 10 µM

SMILES: O=C(O)/C=C/C=C/c1ccco1 [compound 38]
- Ki (MASP-2): 10 to 25 µM

SMILES: C[C@H](NC(=O)[C@H]1C[C@H](Cc2ccccc2)CN1)C(=O)NCc1cnc2[nH]cc(Cl)c2c1 [compound 1334, (2R,4S)-4-Benzyl-N-((S)-1-(((3-chloro-1H-pyrrolo[2,3-b]pyridin-5-yl)methyl)amino)-1-oxopropan-2-yl)pyrrolidine-2-carboxamide Di-hydrochloride]
- Ki (mMASP-2; read-out: mMASP-2 Ki): < 0.5 µM
- Ki (human α-thrombin; read-out: Thrombin Ki): < 0.5 µM
- selectivity for MASP-2 over thrombin (MASP-2; MASP-2 vs thrombin): MASP-2 selective
- Ki (MASP-2 (CCP1-CCP2-SP); read-out: MASP-2 Ki): < 0.5 µM
- MASP-2 vs. thrombin selectivity (MASP-2 (CCP1-CCP2-SP)): −− (<1.0-fold)

SMILES: Cc1nc(N)ccc1CNC(=O)[C@H](C)NC(=O)[C@H]1C[C@H](Cc2ccc3nsnc3c2)CN1 [compound 1449, (2R,4S)—N—((S)-1-(((6-Amino-2-methylpyridin-3-yl)methyl)amino)-1-oxopropan-2-yl)-4-(benzo[c][1,2,5]thiadiazol-5-ylmethyl)pyrrolidine-2-carboxamide Di-trifluoroacetate salt]
- Ki (mMASP-2; read-out: mMASP-2 Ki): < 0.5 µM
- Ki (human α-thrombin; Thrombin Ki (μM)): 2.5 to 10 µM
- IC50 (Lectin Pathway): 0.5 to 5 µM
- Ki (MASP-2 (CCP1-CCP2-SP); read-out: MASP-2 Ki): < 0.5 µM
- MASP-2 vs. thrombin selectivity (MASP-2 (CCP1-CCP2-SP)): **** (≥100-fold)

SMILES: Cc1nc(N)ccc1CNC(=O)[C@H](C)NC(=O)[C@H]1C[C@H](Cc2ccc(Cl)c(Br)c2)CN1 [compound 1451, (2R,4S)—N—((S)-1-(((6-Amino-2-methylpyridin-3-yl)methyl)amino)-1-oxopropan-2-yl)-4-(3-bromo-4-chlorobenzyl)pyrrolidine-2-carboxamide Di-trifluoroacetate salt]
- Ki (mMASP-2; read-out: mMASP-2 Ki): < 0.5 µM
- Ki (human α-thrombin; Thrombin Ki (μM)): 10 to 25 µM
- IC50 (Lectin Pathway): 0.5 to 5 µM
- Ki (MASP-2 (CCP1-CCP2-SP); read-out: MASP-2 Ki): < 0.5 µM
- MASP-2 vs. thrombin selectivity (MASP-2 (CCP1-CCP2-SP)): **** (≥100-fold)

SMILES: Cc1nc(N)ccc1CNC(=O)[C@H](C)NC(=O)[C@H]1C[C@H](Cc2cccc(Br)c2)CN1 [compound 1452, (2R,4S)—N—((S)-1-(((6-Amino-2-methylpyridin-3-yl)methyl)amino)-1-oxopropan-2-yl)-4-(3-bromobenzyl)pyrrolidine-2-carboxamide Dihydrochloride]
- Ki (mMASP-2; read-out: mMASP-2 Ki): < 0.5 µM
- Ki (human α-thrombin; Thrombin Ki (μM)): 0.5 to 2.5 µM
- IC50 (Lectin Pathway): 0.5 to 5 µM
- Ki (MASP-2 (CCP1-CCP2-SP); read-out: MASP-2 Ki): < 0.5 µM
- MASP-2 vs. thrombin selectivity (MASP-2 (CCP1-CCP2-SP)): **** (≥100-fold)

SMILES: COc1ccc2cc(C[C@@H]3CN[C@@H](C(=O)N[C@@H](C)C(=O)NCc4ccc(N)nc4C)C3)ccc2c1 [compound 1453, (2R,4S)—N—((S)-1-(((6-Amino-2-methylpyridin-3-yl)methyl)amino)-1-oxopropan-2-yl)-4-((6-methoxynaphthalen-2-yl)methyl)pyrrolidine-2-carboxamide Dihydrochloride]
- Ki (mMASP-2; read-out: mMASP-2 Ki): < 0.5 µM
- Ki (human α-thrombin; Thrombin Ki (μM)): 10 to 25 µM
- IC50 (Lectin Pathway): < 0.05 µM
- Ki (MASP-2 (CCP1-CCP2-SP); read-out: MASP-2 Ki): < 0.5 µM
- MASP-2 vs. thrombin selectivity (MASP-2 (CCP1-CCP2-SP)): **** (≥100-fold)

SMILES: Cc1nc(N)ccc1CNC(=O)[C@H](C)NC(=O)[C@H]1C[C@H](Cc2ccc(Cl)s2)CN1 [compound 1454, (2R,4R)—N—((S)-1-(((6-Amino-2-methylpyridin-3-yl)methyl)amino)-1-oxopropan-2-yl)-4-((5-chlorothiophen-2-yl)methyl)pyrrolidine-2-carboxamide Dihydrochloride]
- Ki (mMASP-2; read-out: mMASP-2 Ki): < 0.5 µM
- Ki (human α-thrombin; Thrombin Ki (μM)): 0.5 to 2.5 µM
- IC50 (Lectin Pathway): 0.5 to 5 µM
- Ki (MASP-2 (CCP1-CCP2-SP); read-out: MASP-2 Ki): < 0.5 µM
- MASP-2 vs. thrombin selectivity (MASP-2 (CCP1-CCP2-SP)): *** (≥25 to <100-fold)

SMILES: Cc1cc(Cl)cc(CNC(=O)[C@H](C)NC(=O)[C@H]2C[C@H](Cc3ccc(Cl)s3)CN2)c1O [compound 1456, (2R,4R)—N—((S)-1-((5-Chloro-2-hydroxy-3-methylbenzyl)amino)-1-oxopropan-2-yl)-4-((5-chlorothiophen-2-yl)methyl)pyrrolidine-2-carboxamide Dihydrochloride]
- Ki (mMASP-2; read-out: mMASP-2 Ki): 0.5 to 2.5 µM
- Ki (human α-thrombin; read-out: Thrombin Ki): > 25 µM
- IC50 (Lectin Pathway): 5 to 50 µM
- Ki (MASP-2 (CCP1-CCP2-SP); read-out: MASP-2 Ki): < 0.5 µM

SMILES: Cc1nc(N)ccc1CNC(=O)Cn1c(C)cnc(NCCc2ccccc2)c1=O [compound 1488]
- Ki (mMASP-2; read-out: mMASP-2 Ki): 2.5 to 10 µM
- Ki (human α-thrombin; read-out: Thrombin Ki): < 0.5 µM
- IC50 (Lectin Pathway): 0.5 to 5 µM
- Ki (MASP-2 (CCP1-CCP2-SP); read-out: MASP-2 Ki): < 0.5 µM
- MASP-2 vs. thrombin selectivity (MASP-2 (CCP1-CCP2-SP)): −− (<1.0-fold)

SMILES: Cc1cnc(NCCc2ccccc2)c(=O)n1CC(=O)NCc1cnc2[nH]cc(Cl)c2c1 [compound 1490, N-((3-Chloro-1H-pyrrolo[2,3-b]pyridin-5-yl)methyl)-2-(6-methyl-2-oxo-3-(phenethylamino)pyrazin-1(2H)-yl)acetamide Acetate salt]
- Ki (mMASP-2): 2.5 to 10 µM
- Ki (human α-thrombin; read-out: Thrombin Ki): < 0.5 µM
- IC50 (Lectin Pathway): 5 to 50 µM
- Ki (MASP-2 (CCP1-CCP2-SP); read-out: MASP-2 Ki): < 0.5 µM
- MASP-2 vs. thrombin selectivity (MASP-2 (CCP1-CCP2-SP)): −− (<1.0-fold)

SMILES: Cc1cnc(NCCc2ccccc2)c(=O)n1CC(=O)NCc1ccc2c(N)nccc2c1 [compound 1491, N-((1-Aminoisoquinolin-6-yl)methyl)-2-(6-methyl-2-oxo-3-(phenethylamino)pyrazin-1(2H)-yl)acetamide Trifluoroacetamide salt]
- Ki (mMASP-2; read-out: mMASP-2 Ki): < 0.5 µM
- Ki (human α-thrombin; read-out: Thrombin Ki): < 0.5 µM
- IC50 (Lectin Pathway): 5 to 50 µM
- Ki (MASP-2 (CCP1-CCP2-SP)): 0.5 to 2.5 µM
- MASP-2 vs. thrombin selectivity (MASP-2 (CCP1-CCP2-SP)): −− (<1.0-fold)

SMILES: Cc1cnc(NCCc2ccccc2)c(=O)n1CC(=O)NCc1ccc2nc(N)[nH]c2c1 [compound 1492, N-((2-Amino-1H-benzo[d]imidazol-6-yl)methyl)-2-(6-methyl-2-oxo-3-(phenethylamino)pyrazin-1(2H)-yl)acetamide Trifluoroacetamide salt]
- Ki (mMASP-2; read-out: mMASP-2 Ki): < 0.5 µM
- Ki (human α-thrombin; read-out: Thrombin Ki): < 0.5 µM
- IC50 (Lectin Pathway): 0.05 to 0.5 µM
- Ki (MASP-2 (CCP1-CCP2-SP); read-out: MASP-2 Ki): < 0.5 µM
- MASP-2 vs. thrombin selectivity (MASP-2 (CCP1-CCP2-SP)): ** (≥5.0 to <25-fold)
